Values of other authors, collected in patent US20110030103A1, “LIPOPEPTIDES AND LIPOPEPTIDE SYNTHETASES” (priority 2007, published 2011).
*1 amine or outer side, *2 acyl side, *3 side chain or, on linkers, in order; H or OH if unused. Where a SMILES comes first, the peptide text is derived from it. Bridges are numbered along the chain shown (N, C = ends). [ ]: non-standard residue; d: D form. X1 = CC(C)CCCCCCCCC[C@H](CC(=O)[*:1])O[*:2]

Test system: bacteria, including both Gram-negative and Gram-positive bacteria
Settings: minimal antibacterial effects; background statement

## CC(C)CCCCCCCCC[C@@H]1CC(=O)N[C@@H](CCC(=O)O)C(=O)N[C@@H](CC(C)C)C(=O)N[C@H](CC(C)C)C(=O)N[C@@H](C(C)C)C(=O)N[C@@H](CC(=O)O)C(=O)N[C@H](CC(C)C)C(=O)N[C@@H](CC(C)C)C(=O)O1 [surfactin] (EL[dL]VD[dL]L; linker N-C via X1)
  minimum inhibitory concentration (MIC): 12 to 50 mg/L
